Source: patent US20150119360A1, “COMPOSITION FOR PROMOTING BIFIDOBACTERIA GROWTH” (Kyoto University, priority 2012, published 2015)

How the values were obtained:
Assay in all cases: Growth-promoting (prebiotic) effect, OD600 after 24 hr anaerobic culture in GAM bouillon
Assay type in all cases: cell-based
[1] = test system: Bifidobacterium longum subsp. Longum NCC2705 strain; details: B. longum subsp. Longum NCC2705, 0.5 (w/v) % oligosaccharide, 37° C.
Method: (§1) The microorganisms were purchased from independent administrative agency RIKEN Tsukuba Laboratory BioResource Center (3-1-1 Koyadai, Tsukuba, Ibaraki 305-0074, Japan). As Bifidobacterium longum subsp. longum NCC2705, the strain preserved under GenBank accession number NC004307 was used.
(§2) Glycerol stock of each strain shown in Table 1 was plated in GAM bouillon (manufactured by Nissui Pharmaceutical Co., Ltd.) agar medium, and cultured using a gas pack (“Anaeropack”, manufactured by Mitsubishi Gas Chemical Company, Inc.), under anaerobic conditions at 37° C. for 2 days to renature the test strain. Each strain was inoculated in 5 mL GAM bouillon liquid medium, and precultured in the same manner as above under an anaerobic condition at 37° C. for 18 hr.
(§3) The turbidity (OD600) of each culture medium was measured at wavelength 600 nm on completion of the preculture. The preculture medium was seeded in 1 mL of main test liquid medium such that the OD600 value at the time of start of the culture was 0.010, the cells were cultured under anaerobic conditions at 37° C. for 24 hr in the same manner as above, and OD600 of the culture medium was measured on completion of the culture. The liquid medium for the test was prepared by adding LNT or LNnT to the GAM bouillon liquid medium at a final concentration of 0.5 (w/v) %. In addition, GAM bouillon liquid medium free of both oligosaccharides LNT, LNnT was used as a control. To evaluate the growth-promoting effect (prebiotic effect) of LNT and LNnT, the relative value of the oligosaccharide (LNT or LNnT) addition plot, when the measurement value OD600 of the oligosaccharide non-addition plot (control) was 1, is shown in FIG. 2.

[2] = test system: Bifidobacterium longum subsp. Longum 7054 strain; details: B. longum subsp. Longum 7054, 0.5 (w/v) % oligosaccharide, 37° C.
Method: as §1, §2, §3

[3] = test system: Bifidobacterium longum subsp. Longum 1217 strain; details: B. longum subsp. Longum 1217, 0.5 (w/v) % oligosaccharide, 37° C.
Method: as §1, §2, §3

Measured: prebiotic effect (OD600 of oligosaccharide addition test plot/OD600 of control plot)

4-O-[3-[2-(acetylamino)-2-deoxy-3-O-(β-D-galactopyranosyl)-β-D-glucopyranosyl]-β-D-galactopyranosyl]-D-glucose [LNT]
≥ 2 fold: all assays above
